Results: US20070020193A1, “Dronabinol compositions and methods for using same” (priority 2005, published 2007)

What was measured:
[1] = Example 2 multiple rising dose inhaled delta-9-THC study: plasma pharmacokinetics
Experimental: A randomized, double-blind, placebo-controlled, multiple rising dose safety, tolerability, pharmacokinetic and pharmacodynamic study to assess two dose levels of inhaled delta-9-THC was conducted. Dose levels were studied in ascending order. Two consecutive groups (n=9/group) of healthy subjects were studied (Groups I and II). […] There was a lapse of at least 10 days between the groups for interim safety and pharmacokinetic analysis. Two dose levels were studied in ascending order. […] Subjects in each treatment Group (I or II) received single and multiple doses of inhaled delta-9-THC according to the following schedule:
For both dose levels, the first and the last dose of study drug was given under fasted conditions. Subjects were confined to the study site from the evening of Day −2 (Day 1 is the day of administration of the first dose of study drug) until the 120-hour blood sample following the final dose of study drug, resulting in an 18-day confinement period for subjects in Group I and a 25-day confinement period for Group II. Between the completion of Group I and the start of Group II, an interim safety and pharmacokinetic analysis was performed. Based on the results of the interim analyses, the dose level for investigation in Group II was determined.
Two MDI dosage strengths were used corresponding to the same formulations used in Example 1: one delivering 0.3 mg delta-9-THC (or placebo) per actuation and one delivering 1.2 mg delta-9-THC (or placebo) per actuation. The MDI consisted of a pressurized (via propellants) container and a metered-dose valve. The propellants provided the necessary force to expel the drug, and also acted as a solvent and diluent. The canister unit was provided within a mouthpiece (oral adapter), to expel an exact amount of drug, in the proper particle size distribution, upon each actuation. Two basic formulations containing 0.3 and 1.2 mg of delta-9-THC per 50 μL were developed with propellant 1,1,1,2 tetrafluoroethane 134a (HFA 134a), and ethanol as solvent. The formulations were made in accordance with the composition used in Example 1.
(§1) Whole blood samples were collected according to the assessment flowchart in EDTA tubes through venepuncture or indwelling catheter. Samples were immediately placed on ice and subsequently centrifuged within 30 minutes at 1,500 g for 10 minutes. Plasma was transferred into a 5 ml screw cap polypropylene tube, stoppered and stored at below minus 20° C. until transfer to the analytical laboratory for analysis. […] The measurement ranges were 0.05-30 ng/ml for delta-9-THC, 0.04-30 ng/ml for 11-OH-THC, and 0.25-10 ng/ml for THC-COOH.
For Example 2: The statistical analysis encompassed an exploratory analysis of the single and multiple dose pharmacokinetics and dose proportionality of two dose levels of inhaled delta-9-THC in healthy subjects. Descriptive statistics included number of subjects, mean, standard deviation, coefficient of variation (%) and geometric mean for all pharmacokinetic parameters.
The exploratory analysis was performed on the logarithms of the dose-normalized pharmacokinetic parameters AUC(0-inf), AUC(0-t), AUC(0-τ) and Cmax. Dose proportionality was tested both at single dose and at multiple dose (steady state) by comparing the dose groups for all pharmacokinetic parameters by an analysis of variance with dose as fixed effect.
Dose proportionality was tested by the contrast between the dose groups. For this contrast on the logarithmic scale, p-values were given. After anti-logarithmic transformation, the resultant ratios of geometric means and 90% confidence intervals were given.
Accumulation was tested by comparing the steady state values for AUC(0-τ) with the single dose values for AUC(0-τ) by a mixed model analysis of variance with dose and day (with levels single dose and steady state) as fixed effects and subject within dose as random effect.

[2] = Example 1 single rising dose inhaled delta-9-THC study: plasma pharmacokinetics
Experimental: A randomized, double blind, placebo controlled, three way crossover, single rising dose human clinical study in two sequential groups (Groups I and II) of nine young healthy male subjects (18-45 years of age and body mass index (BMI) of 20-26 kg/m^2) of a metered dose inhalation composition according to one embodiment the present invention was conducted. Each subject received two ascending single doses of inhaled delta-9-THC and one single dose of inhaled placebo according to a three-way crossover balanced incomplete block design. The administered composition is detailed in Table 1. Composition I provides 0.3 mg per actuation, while Composition II provides 1.2 mg per actuation.
Each sequential dose level or period was separated by a washout period of two weeks, during which an interim safety and pharmacokinetic analysis was performed. A third group (Group III) of nine elderly healthy male and female subjects (65-80 years old and BMI 18-30 kg/m^2) was added after completion of the sixth study period to participate in a single treatment period. […] Five dose levels were evaluated: 0.3 mg, 1.2 mg, and 2.4 mg in Group I, 3.6 mg, 7.2 mg, and 9.6 mg in Group II, and 3.6 mg in Group III. Subjects were confined to the study center from the day prior to dosing until the 48 hour blood sample. Subjects returned to the center for 72, 96 and 120 hour pharmacokinetic samples. Various pharmacokinetic and pharmacodynamic measurements and sampling were taken according to the Assessment Flow Charts in FIG. 1 and FIG. 2. Safety was measured by monitoring adverse events, physical examination, clinical laboratory and pulmonary function tests, vital signs, 12 lead ECG, and telemetry.
Safety, pharmacokinetic and pharmacodynamic variables were estimated. Plasma concentrations of delta-9-THC (THC), 11-hydroxy-tetrahydrocanabinol (11-OH-THC) and delta-9-tetrahydrocannbinol-carboxylic acid (THC-COOH) were determined for pharmacokinetic analysis.
as §1
Number of subjects, mean, standard deviation, coefficient variable (%) and geometric mean were calculated for all pharmacokinetic parameters.
For Example 1: A mixed ANOVA model with group and dose fixed effect and subject within group by dose as random effect was performed on the logarithms of the dose normalized pharmacokinetic parameters AUC, AUC0-t and Cmax. The overall treatment effect was tested by conventional F-test with Satterthwaites correction. Dose proportionality was tested using Helmert Contrasts and Reverse Helmert Contrasts. The within and between subject coefficient of variances were calculated from the estimated covariance parameters. Per dose level geometric means with 90% confidence interval were calculated for the dose-normalized values from the least squared means analysis outcomes. The difference between young and elderly subjects was explored using a one-way ANOVA.

For `CCCCCc1cc(O)c2c(c1)OC(C)(C)C1CCC(CO)=CC21` (stereo not shown) [11-OH-THC, 11-hydroxy-tetrahydrocanabinol], the “achievement of steady state” value ([1]; 1.2 mg delta-9-THC three times daily) was “apparently reached after six days of dosing”, the “Cmax, Geometric Mean (Range)” value ([1]; 1.2 mg m.d. (three times daily), Day 12, Group I) was 0.54 (0.26-1.26) ng/mL and the “AUC(0-8), Arithmetic Mean (SD)” value ([1]; 1.2 mg m.d., Day 12, Group I) was 2.07 (0.99) ng · h/mL. The “AUC(0-8), Geometric Mean (Range)” value ([1]; 1.2 mg m.d., Day 12, Group I) was 1.89 (1.13-3.48) ng · h/mL, the “Cmax, Arithmetic Mean (SD)” value ([1]; 1.2 mg m.d., Day 12, Group I) was 0.61 (0.36) ng/mL and the “tmax, Arithmetic Mean (SD)” value ([1]; 1.2 mg m.d., Day 12, Group I) was 0.48 (0.36) h. For the same compound, the “tmax, median (range)” value ([1]; 1.2 mg m.d., Day 12, Group I) was 0.42 (0.17-1.00) h, the “t½, Arithmetic Mean (SD)” value ([1]; 1.2 mg m.d., Day 12, Group I) was 14.9 (6.08) h and the “t½, Geometric Mean (Range)” value ([1]; 1.2 mg m.d., Day 12, Group I) was 13.9 (7.41-25.2) h. For the same compound, the “AUC(0-8), Arithmetic Mean (SD)” value ([1]; 1.2 mg s.d., Day 1) was 1.50 (0.88) ng · h/mL, the “AUC(0-8), Geometric Mean (Range)” value ([1]; 1.2 mg s.d., Day 1) was 1.26 (0.41-2.66) ng · h/mL and the “AUC(0-inf), Arithmetic Mean (SD)” value ([1]; 1.2 mg s.d., Day 1) was 1.93 (1.22) ng · h/mL. The “AUC(0-inf), Geometric Mean (Range)” value ([1]; 1.2 mg s.d., Day 1) was 1.56 (0.49-3.39) ng · h/mL, the “tmax, Arithmetic Mean (SD)” value ([1]; 1.2 mg s.d., Day 1) was 0.48 (0.75) h and the “tmax, median (range)” value ([1]; 1.2 mg s.d., Day 1) was 0.17 (0.17-2.00) h. The “t½, Arithmetic Mean (SD)” value ([1]; 1.2 mg s.d., Day 1) was 4.19 (1.67) h, the “t½, Geometric Mean (Range)” value ([1]; 1.2 mg s.d., Day 1) was 3.91 (2.55-6.01) h and the “Cmax, Arithmetic Mean (SD)” value ([1]; 1.2 mg s.d., Day 1, plasma) was 0.86 (0.57) ng/mL. For the same compound, the “Cmax, Geometric Mean (Range)” value ([1]; 1.2 mg s.d., Day 1, plasma) was 0.63 (0.10-1.55) ng/mL, the “Cmax, Geometric Mean (Range)” value ([1]; 3.6 mg m.d. (three times daily), Day 19, Group II) was 2.87 (1.27-6.97) ng/mL and the “AUC(0-8), Arithmetic Mean (SD)” value ([1]; 3.6 mg m.d., Day 19, Group II) was 10.1 (6.13) ng · h/mL. For the same compound, the “AUC(0-8), Geometric Mean (Range)” value ([1]; 3.6 mg m.d., Day 19, Group II) was 8.69 (4.06-19.8) ng · h/mL, the “Cmax, Arithmetic Mean (SD)” value ([1]; 3.6 mg m.d., Day 19, Group II) was 3.40 (2.17) ng/mL and the “tmax, Arithmetic Mean (SD)” value ([1]; 3.6 mg m.d., Day 19, Group II) was 0.27 (0.20) h. The “tmax, median (range)” value ([1]; 3.6 mg m.d., Day 19, Group II) was 0.17 (0.17-0.67) h, the “t½, Arithmetic Mean (SD)” value ([1]; 3.6 mg m.d., Day 19, Group II) was 57.3 (37.9) h and the “t½, Geometric Mean (Range)” value ([1]; 3.6 mg m.d., Day 19, Group II) was 39.5 (5.65-94.2) h. For the same compound, the “AUC(0-8), Arithmetic Mean (SD)” value ([1]; 3.6 mg s.d., Day 1) was 5.15 (3.04) ng · h/mL, the “AUC(0-8), Geometric Mean (Range)” value ([1]; 3.6 mg s.d., Day 1) was 4.44 (2.22-9.46) ng · h/mL and the “AUC(0-inf), Arithmetic Mean (SD)” value ([1]; 3.6 mg s.d., Day 1) was 6.82 (3.98) ng · h/mL. The “AUC(0-inf), Geometric Mean (Range)” value ([1]; 3.6 mg s.d., Day 1) was 5.86 (3.03-11.6) ng · h/mL, the “tmax, Arithmetic Mean (SD)” value ([1]; 3.6 mg s.d., Day 1) was 0.18 (0.01) h and the “tmax, median (range)” value ([1]; 3.6 mg s.d., Day 1) was 0.17 (0.17-0.20) h. The “t½, Arithmetic Mean (SD)” value ([1]; 3.6 mg s.d., Day 1) was 5.98 (2.91) h, the “t½, Geometric Mean (Range)” value ([1]; 3.6 mg s.d., Day 1) was 5.44 (2.96-11.0) h and the “Cmax, Arithmetic Mean (SD)” value ([1]; 3.6 mg s.d., Day 1, plasma) was 2.21 (1.37) ng/mL. The “Cmax, Geometric Mean (Range)” value ([1]; 3.6 mg s.d., Day 1, plasma) was 1.91 (1.12-4.38) ng/mL, the “achievement of steady state” value ([1]; 3.6-mg dose level three times daily) was “achieved after seven or eight days of dosing” and the “accumulation during multiple dosing” value ([1]; 8-hours dosing interval) was “accumulation occurred during multiple dosing”. For the same compound, the “Ratio AUC(0-8) m.d./AUC(0-8) s.d. (Accumulation factor), Mean” value ([1]; Group I, 1.2 mg) was 1.59, the “Ratio AUC(0-8) m.d./AUC(0-inf) s.d. (Linearity), Mean” value ([1]; Group I, 1.2 mg) was 1.30 and the “Ratio AUC(0-8) m.d./AUC(0-8) s.d. (Accumulation factor), Mean” value ([1]; Group II, 3.6 mg) was 2.10. The “Ratio AUC(0-8) m.d./AUC(0-inf) s.d. (Linearity), Mean” value ([1]; Group II, 3.6 mg) was 1.55, the “dose proportionality: geometric mean ratio (3.6 mg:1.2 mg) of dose-normalized AUC(0-8) (90% confidence interval)” value ([1]; Multiple dose) was 1.53 (0.87-2.69) and the “dose proportionality: geometric mean ratio (3.6 mg:1.2 mg) of dose-normalized Cmax (90% confidence interval)” value ([1]; Multiple dose) was 1.79 (0.95-3.36). The “dose proportionality: geometric mean ratio (3.6 mg:1.2 mg) of dose-normalized AUC(0-8) (90% confidence interval)” value ([1]; Single dose) was 1.18 (0.60-2.33), the “dose proportionality: geometric mean ratio (3.6 mg:1.2 mg) of dose-normalized AUC(0-inf) (90% confidence interval)” value ([1]; Single dose) was 1.25 (0.61-2.57) and the “dose proportionality: geometric mean ratio (3.6 mg:1.2 mg) of dose-normalized AUC(0-t) (90% confidence interval)” value ([1]; Single dose) was 1.43 (0.64-3.20). The “dose proportionality: geometric mean ratio (3.6 mg:1.2 mg) of dose-normalized Cmax (90% confidence interval)” value ([1]; Single dose) was 1.01 (0.42-2.42), the “Cmax, fold lower compared to the parent compound” value ([1]; after multiple dosing) was about 13 fold and the “exposure compared to the parent drug (AUC(0-8))” value ([1]; after multiple dosing) was “approximately two-fold lower”. The “Cmax, fold lower compared to the parent compound” value ([1]; after single dosing) was “approximately 25 fold”, the “dose proportionality of pharmacokinetic parameters” value ([1]; after single or multiple dose administration) was “not found to deviate significantly” and the “plasma concentration-time curve, elimination profile” value ([1]; both dose levels) was “at least a bi-phasic elimination profile”. The “time of peak plasma concentration” value ([1]; both dose levels, post-dose) was “between 10 minutes and 2 hours post-dose”, the “exposure compared to the parent drug (AUC(0-inf))” value ([1]; following single dose administration) was “approximately four-fold lower” and the “Cmax and AUC values versus dose” value ([1]; single and multiple dose administration, 1.2 and 3.6 mg) was “Dose-related increases”. For the same compound, the “Terminal elimination half-lives (summary estimate)” value ([1]; summary, best estimated after multiple dosing) was about 40 h, the “Cmax and AUC versus dose” value ([2]; 7.2 and 9.6 mg doses) was “less than proportional increase” and the “Cmax and AUC versus dose” value ([2]; Groups I and II, doses from 0.3-3.6 mg) was “dose-related increase”. For the same compound, the Cmax ([2]; plasma, after 2.4 mg of delta-9-THC administered by MDI (FIGS. 6 and 7)) was 0.77 ng/mL.
